Where “and” joins values, the source holds several entries; their conditions need not be identical. Equal entries are not always repeated. Where two headings read alike, the source gives them in different places.
What was measured:
U937 Clone 10 cells = experiment: Receptor polarization and endocytosis of SHIV; format: cell-based, human; details: for SHIV localization: cells preconditioned 15 min 37°C
Procedure: Receptor Polarization and Endocytosis. To Eppendorf tubes that been precoated with RPMI-1640 containing 10% fetal bovine serum to prevent attachment, were added 250 μl containing 5 × 10^5 U937 Clone 10 cells.
U937 Clone 10 cells were pulsed with SHIV particles (30 ng p27 or p24 per 10^6 cells) for 2 h at 2°C, a circumstance that allows binding, but prevents endocytosis. Alternatively, cells were pulsed with virus for 2 h at 37°C, a circumstance that allows binding and endocytosis ([Bristow et al., 2012]). Following pulsing for 2 h, cells were pelleted, resuspended in AIM-V and allowed to adhere to Alcian blue coated microscope slides for 8 min at 4°C, washed, and fixed using 4% paraformaldehyde as previously described ([Frank et al., 2002]). The presence of AT-2 virus in test cells was detected using dodecameric human CD4-IgG1 provided by the Laboratory of Immunoregulation, NIAID, NIH. This reagent specifically recognizes conformationally intact HIV/SIV envelope gp120. CD4-IgG1 was detected using rabbit anti-human IgG conjugated with horse radish peroxidase (SigmaAldrich). CD4-IgG-labeled cells were coupled to Oregon 488 fluorochrome using the tyramide signal amplification system (Life Science Products, Boston, MA, United States). In some cases, cells stained on slides were permeabilized using 0.05% saponin during the blocking step and further stained with the nuclear staining dye, 4′,6-diamidino-2-phenylindole (DAPI), mounted, and examined by epifluorescence microscopy using a Zeiss Axioplan to detect positive and negative reactions. Representative samples of positive and negative reactions were subsequently captured by confocal microscopy using a Perkin Elmer Operetta High Content Imaging System. Cells were analyzed by confocal microscopy using 2 μm scanning from the attached surface toward the unattached surface.

[1] = Diet-induced obesity (DIO) mouse model, lipoprotein levels; format: in vivo, C57BL/6J mice; details: 60% fat diet, daily oral gavage; for LDL levels: after 3 weeks, ezetimibe 10 mg/kg, Alphataxin 5 mg/kg; for LDL levels / triglyceride levels: vs vehicle control; for triglyceride levels: weeks 3, 6, 8
Procedure: Animal Studies. Animal studies were performed by Jackson Laboratory (Bar Harbor, ME), an OLAW-Assured and AAALAC accredited institution. All research was reviewed and approved by the Institutional Animal Care and Use Committee (IACUC) prior to commencing. The study used 16–17 weeks old male DIO C57BL/6J mice that had been maintained on a 10% (control) or 60% high-fat diet. […] Treatment was delivered by daily oral gavage at the same time of day for 12 weeks. Blood was collected by retro-orbital bleed every 3 weeks for measurement of total cholesterol, LDL, HDL, triglycerides, […] free fatty acids and glucose using the Beckman Coulter AU680 Chemistry System.
Food consumption was monitored twice weekly, and body weight was monitored weekly. As mice gained weight on the 60% high-fat diet during the study, dosing was adjusted accordingly. Mice were monitored for adverse effects (e.g., labored breathing, aberrant weight change). Three mice were lost during the study. […] The mice lost in the ezetimibe group were due to a severe bite wound and an unknown causes. The mouse lost in the Alphataxin group was due to an abnormal amount of gas in the stomach attributed to a gavaging error.

E. coli DH5-Alpha = experiment: Kirby-Bauer Disk Test of antibiotic activity; format: cell-based; details: for diameter of zone of inhibition: 16 h at 37°C; for inhibitory dose: disk test
Procedure: Antibiotic activity. […] D-Ampicillin-sensitive E. coli DH5-Alpha was cultured overnight in LB broth, and the cell concentration was calibrated using McFarland Turbidity Standard […] for <300 × 10^6 CFU. At this concentration of cells, bacteria were spread on Mueller-Hinton agar plates. […] After incubation for 16 h at 37°C, plates were examined for zones of inhibition.

[2] = target: T1, cell surface human leukocyte elastase (HLE-CS) on U937 Clone 10 cells (Homo sapiens, UniProt P08246); experiment: Cellular adherence to glass (HLE-CS interaction); format: cell-based; details: 2,000 U937 cells per well; for HLE-CS Adherent cells: at optimal concentration; for HLE-CS Optimal concentration: optimal adherence concentration
T1 construct: endogenous in cells; host or cells: human U937 Clone 10 cells
T1 sequence (P08246 30-267): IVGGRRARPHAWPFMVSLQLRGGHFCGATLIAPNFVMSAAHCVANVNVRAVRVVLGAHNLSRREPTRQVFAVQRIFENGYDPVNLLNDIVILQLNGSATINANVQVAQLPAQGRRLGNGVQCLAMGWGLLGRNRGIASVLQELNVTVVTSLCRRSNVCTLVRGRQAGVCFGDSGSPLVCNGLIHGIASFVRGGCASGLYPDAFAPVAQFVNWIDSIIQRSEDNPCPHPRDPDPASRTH
Source text: Cellular adherence. […] […] Unattached cells were removed by washing using AIM-V, and attached cells were fixed by application of 4% paraformaldehyde. Attached cells were counted by light microscopy.

[3] = target: T2, Human leukocyte elastase (HLE-G) (Homo sapiens, UniProt P08246); experiment: Inhibition of HLE-G enzymatic activity; format: biochemical; details: for IC50: compound vs. HLE-G (75 µM), 10 min at 37°C, 5 min with substrate; for HLE-G Molar excess: molar excess of compound to HLE-G at IC50
T2 construct: purchased Athens Research & Technology 16-14-051200
T2 sequence (P08246 30-267): T1 sequence (P08246 30-267)
Procedure: Inhibition of HLE-G enzymatic activity. Two-fold serial dilutions of HLE-G in 100 µl Tris-buffered saline (pH 7.8) were added to rows of wells of a microtiter plate as previously described ([Bristow et al., 1991]). […] The microtiter plate was incubated for 10 min at 37°C. The HLE-G substrate (Succinyl-L-Ala-L-Ala-L-Ala-p-nitroanilide, Sigma) was added to all wells, and absorbance at 405 nm was detected kinetically at 23°C using an MRX plate reader.

[4] = design: method as in Nissen et al., 2016; details: ref Nissen et al., 2016, cited from earlier work
[5] = tested on: Leishmania amazonensis promastigotes; design: method as in Andrade-Neto et al., 2016; details: ref Andrade-Neto et al., 2016; read-out: IC50 for killing Leishmania amazonensis promastigotes; cited from earlier work
Lactobacillus spp. = tested on: Lactobacillus spp.; design: method as in Catry et al., 2015; details: ref Catry et al., 2015; cited from earlier work
[6] = format: in vivo, human; details: HIV-1-infected, 8 weekly infusions 120 mg/kg
Procedure: Clinical trial NCT01731691: This clinical trial was a double-blind, randomized study as previously described ([Bristow et al., 2019]). Written informed consent was received from 12 individuals, 8 HIV-1-infected individuals and 4 uninfected controls. Blood was collected weekly at the same time of day at baseline and for 8 subsequent weeks from uninfected, untreated controls and from HIV-1-infected individuals who were treated weekly with Prolastin-C (n = 3) or with placebo (n = 5). […] Inclusion criteria HIV-1 uninfected, untreated controls were the same as for HIV-1 infected subjects excluding HIV-related criteria. Grifols Biotherapeutics contributed a sufficient quantity of Prolastin-C (lot# 26NLK52) for administration of 8 weekly infusions at a dose of 120 mg/kg. The study protocol was approved by Copernicus Group Independent Institutional Review Board, Durham, NC. Drug delivery and blood collection were performed at ACRIA, New York, NY.
Human apolipoproteins measurement. Total cholesterol, high density lipoprotein (HDL), low density lipoprotein (LDL), triglycerides, apolipoprotein E (apoE), and apolipoprotein A1 (apoA1) measurements were performed by ICON Central Laboratory, Farmingdale, NY. Cholesterol, HDL, and triglycerides were measured using the Chol2, HDLC3, TRIGL methods on the Roche/Hitachi cobas c analyzer. LDL was calculated using the formula total cholesterol – HDL – (triglycerides/5). ApoE was quantitated using the Kamiya Biomedical Co. K-assay immunoturbidimetric method. ApoA1 was quantitated using the Siemens N antisera method by immunonephelometry on the BN II and BN ProSpec System. Total apoB and apoB48 measurements were contracted by ICON Central Laboratory to Nexelis (formerly Pacific Biomarkers). Total apoB was measured in serum by immunoturbidimetry using the Roche Modular P instrument and Goat polyclonal antibody specific for human apoB. ApoB48 wase measured by sandwich ELISA using a capture monoclonal antibody and detection using a biotin-conjugated polyclonal antibody followed by HRP-conjugated Streptavidin and addition of a chromogenic substrate using a SoftMax Pro ELISA plate reader. ApoB100 was calculated as total apoB minus apoB48. Cholesterol, triglycerides, HDL, LDL, apoE and apoA1 were measured by ICON Central Laboratory, Farmingdale, NY.

CC1(C)S[C@@H]2[C@H](NC(=O)[C@@H](N)c3ccccc3)C(=O)N2[C@H]1C(=O)O [Alphataxin]
cellular locomotion and endocytosis (U937 Clone 10 cells): mimics α1PI activity by binding to HLE-CS and inducing cellular locomotion and endocytosis
SHIV localization (U937 Clone 10 cells; SHIV 2 h at 2°C): SHIV detected only on the exterior plasma membrane of polarized cells, never internalized into the cells
SHIV localization (U937 Clone 10 cells; SHIV 2 h at 37°C): SHIV was detected internal to the cells
LDL levels [1]: significantly decreased
LDL lowering compared with ezetimibe ([1]; p = 0.90): equivalent to ezetimibe
triglyceride levels [1]: significantly lowered
antibiotic effectiveness against E. coli (E. coli DH5-Alpha): not an effective antibiotic against E. coli
diameter of zone of inhibition (E. coli DH5-Alpha; 0.05 mM): 1.5 cm
diameter of zone of inhibition (E. coli DH5-Alpha; 0.5 mM): 2.8 cm
diameter of zone of inhibition (E. coli DH5-Alpha; 5 mM (Figure 2 legend)): 1.5 cm
diameter of zone of inhibition (E. coli DH5-Alpha; 50 mM (Figure 2 legend)): 2.8 cm
inhibitory dose (E. coli DH5-Alpha): ≥ 0.05 mM and ≥ 17.5 μg/ml
MIC (E. coli DH5-Alpha; extrapolated from 10-fold greater minimum inhibitory dose than D-ampicillin): ≥ 80 µg/mL

CC1(C)S[C@@H]2[C@H](NC(=O)[C@H](N)c3ccc(O)cc3)C(=O)N2[C@H]1C(=O)O [Amoxicillin]
HLE-CS Adherent cells [2]: 54 ± 20
HLE-CS Optimal concentration [2]: 1 nM

C[C@H]1[C@H](NC(=O)/C(=N\OC(C)(C)C(=O)O)c2csc(N)n2)C(=O)N1S(=O)(=O)O [Aztreonam]
HLE-CS Adherent cells [2]: 33 ± 4
HLE-CS Optimal concentration [2]: 1 nM
IC50 [3]: 234 µM
HLE-G Molar excess [3]: 3.1

CO/N=C(\C(=O)N[C@@H]1C(=O)N2C(C(=O)O)=C(COC(N)=O)CS[C@H]12)c1ccco1 [Cefuroxine, Cefuroxime]
HLE-CS Adherent cells [2]: 34 ± 8
HLE-CS Optimal concentration [2]: 1 nM
IC50 [3]: 167 µM
HLE-G Molar excess [3]: 2.2

CC1=C(C(=O)O)N2C(=O)[C@@H](NC(=O)[C@H](N)c3ccccc3)[C@H]2SC1 [Cephalexin]
HLE-CS Adherent cells [2]: 27 ± 10

CC1(C)S[C@@H]2[C@H](NC(=O)[C@H](N)c3ccccc3)C(=O)N2[C@H]1C(=O)O [D-Ampicillin]
diameter of zone of inhibition (E. coli DH5-Alpha; 0.005 mM): 1.4 cm
diameter of zone of inhibition (E. coli DH5-Alpha; 0.5 mM): 3.8 cm
diameter of zone of inhibition (E. coli DH5-Alpha; 5 mM (Figure 2 legend)): 3.0 cm
diameter of zone of inhibition (E. coli DH5-Alpha; 50 mM (Figure 2 legend)): 3.8 cm
inhibitory dose (E. coli DH5-Alpha): ≥ 0.005 mM and ≥ 1.75 μg/ml

Cc1onc(-c2c(Cl)cccc2Cl)c1C(=O)N[C@@H]1C(=O)N2[C@@H]1SC(C)(C)[C@@H]2C(=O)O [Dicloxacillin]
HLE-CS Adherent cells [2]: 26 ± 9
HLE-CS Optimal concentration [2]: 1 nM
IC50 [3]: 232 µM
HLE-G Molar excess [3]: 3.1

C[C@@H](O)[C@H]1C(=O)N2C(C(=O)O)=C(S[C@@H]3CN[C@H](CNS(N)(=O)=O)C3)[C@H](C)[C@H]12 [Doripenem]
HLE-CS Adherent cells [2]: 52 ± 6
HLE-CS Optimal concentration [2]: 100 nM
IC50 [3]: 178 µM
HLE-G Molar excess [3]: 2.4

O=C1[C@H](CC[C@H](O)c2ccc(F)cc2)[C@@H](c2ccc(O)cc2)N1c1ccc(F)cc1 [Ezetimibe]
effectiveness in lowering LDL levels vs PCSK9 inhibitors ([4]; p < 0.001): significantly less effective
individuals with muscle symptoms [4]: 28%
IC50 [5]: 30 µM
effect on intestinal microbiome (Lactobacillus spp.): increasing the Lactobacillus spp.
HLE-CS Adherent cells [2]: 40 ± 3
HLE-CS Optimal concentration [2]: 100 nM
IC50 [3]: 277 µM
HLE-G Molar excess [3]: 3.7
LDL levels [1]: significantly decreased
triglyceride levels [1]: did not

C[C@@H](O)[C@H]1C(=O)N2C(C(=O)O)=C([C@H]3CCCO3)S[C@H]12 [Faropenem]
HLE-CS Adherent cells [2]: 23 ± 4
HLE-CS Optimal concentration [2]: 10 nM
IC50 [3]: 203 µM
HLE-G Molar excess [3]: 2.7

CC1(C)S[C@@H]2[C@H](NC(=O)COc3ccccc3)C(=O)N2[C@H]1C(=O)O [Pen V, Penicillin V]
HLE-CS Adherent cells [2]: 30 ± 4
HLE-CS Optimal concentration [2]: 10 nM
IC50 [3]: 262 µM
HLE-G Molar excess [3]: 3.5

Prolastin-C: sterile plasma-purified α1PI preparation from Grifols, lot# 26NLK52, infused weekly at 120 mg/kg
HDL levels [6]: decreased from above normal to below normal levels
apoA1 levels [6]: decreased from above normal to below normal levels
apoB48 levels [6]: decreased from above normal to below normal levels
apoB100 levels [6]: did not significantly decrease
apoE levels [6]: decreased from above normal to normal levels
total cholesterol levels [6]: decreased from above normal to normal levels
triglycerides levels [6]: decreased from above normal to normal levels
LDL levels ([6]; vs placebo arm): significantly lower than in the placebo arm
